Test results from PMC12093383, “Protoporphyrin IX-Derived Ruthenium(II) Complexes for Photodynamic Therapy in Gastric Cancer Cells” (Inorganic Chemistry, 2025).
Like-named read-outs stand apart in the source and are kept apart here.

Columns and labels:
AGS gastric cancer cells = test: MTT survival assay, dark or white-light irradiation; assay type: cell-based, human; conditions: for IC50: 8 h incubation, MTT after 48 h; for PI (phototoxicity index): IC50 dark/light ratio
Protocol: To assess the anticancer potential of compounds, the cytotoxicity was evaluated on the gastric cancer cell line AGS. The cells were treated in the dark for 8 h with increasing concentrations of the different compounds (Table 2). Cisplatin was used as a positive cytotoxic and clinically used drug control, and verteporfin (VP) or protoporphyrin-IX (PpIX) were used as positive PDT controls. Cells were then irradiated for 15 min with white light or kept in the dark and further cultivated for 48h in the dark. An MTT test was then performed to evaluate the impact of the different treatments on cell survival. […] The lower cytotoxicity of Ru-2 is most likely due to its low stability in biological media, as determined by stability tests in PBS/DMSO.
The human gastric adenocarcinoma (AGS) cell line was acquired from ATCC (Manassa, VA). AGS cells were cultured in RPMI 1640 medium (Roswell Park Memorial Institute) containing 10% fetal bovine serum (FBS) at 37 °C in a humidified atmosphere of 95% air and 5% CO2.
The antiproliferative activity of cancer cells was determined by the 3-(4,5-dimethylthiazol-2-yl)-2,5-diphenyltetrazolium bromide (MTT) assay. Cells were seeded at 10.000 cells per well (200 μL) in Cellstar 96-well plates (Greiner Bio-One) and further incubated for 24 h. Cells were treated with each compound at different concentrations for 8 h in the dark. After this time, the medium was removed, fresh medium was added, and cells were kept in the dark or irradiated with white light for 15 min. Subsequently, the plates were incubated in the dark for an additional 48 h, and the MTT assay was performed as previously described in the literature.[34] Measurements were performed at 550 nm with the Tristar2Multimode Reader (Berthold Technologies).

[1] = Fluorescence quantum yield; assay type: physicochemical; conditions: DMSO, ligands excited at 503 nm, ruthenium complexes at 573 nm, relative to verteporfin
Protocol: Emission spectra were measured in DMSO. The free ligands were excited at 503 nm, while the ruthenium complexes were excited at 573 nm. For the calculation of fluorescence quantum yield, verteporfin (Φf = 0.0085) was used as a reference.[46] In all metal-free compounds, an intense emission band at approximately 630–670 nm and a small band at approximately 700–750 nm were observed, assigned to Q (0–0) and Q (1–0) transitions, respectively.[48] […] A similar behavior has been observed in palladium(II) and nickel(II) metaloporphyrins, where the fluorescence was quenched due to electron or energy transfer.[49]
The fluorescence quantum yields were determined using verteporfin in DMSO as a reference (Φf = 0.0085).[46],[89] The free ligands were excited at 503 nm, and the ruthenium complexes at 573 nm. The quantum yield was calculated following eq 1.[90],[91] [drawing 1] 1 Where ST and X are standard and analyte, respectively, Φf is the fluorescence quantum yield, Grad is the gradient from the area of integration fluorescence intensity vs absorbance, and ηX and ηST are the refractive index of the solvent used to measure the fluorescence spectrum of the analyte and the standard, respectively.

[2] = Shake-flask partition coefficient, 1-octanol/PBS; assay type: physicochemical; conditions: average of three independent experiments at 27 °C
Excerpt: The n-octanol/water partition coefficient (log Po/w) is a well-established parameter that helps to predict the biological activity of drugs and other biologically active compounds.[56] The so-called “shake-flask” method was adopted to determine the partition coefficient using 1-octanol and PBS (phosphate-buffered saline) as solvents.[57] All the porphyrin derivatives presented low lipophilicity values. At the same time, the chlorin compounds were much more lipophilic as expected due to the reduction of one of the pyrrole rings and the formation of the new ring in the chlorin.
The partition coefficient (log Po/PBS) of each compound was determined experimentally by the “shake-flask” method at room temperature following reported methods.[57],[96] A mixture of 1-octanol and PBS in equal amounts was shaken for 24 h, after which the phases were allowed to separate for 24 h. Then, a 1 × 10^–5 M solution of each compound is prepared in 1-octanol/PBS (1:1), and the mixture is left to stir for 24 h. After 24 h of stirring, the mixture is left for 24 h to separate the two phases. Finally, the concentration of each compound in the two phases is determined by UV–vis spectroscopy. logP was determined by the following eq 3.[97] [drawing 3] 3 Where Aap is the absorbance after partition, and Abp is the absorbance before partition.

LC3B = test: Western blot of LC3B-I/II in AGS cells; assay type: cell-based, human; conditions: IC50 concentration 4 h, white light 15 min, 24 h in the dark
Excerpt: (§1) The therapeutic effects of PDT treatment on cancer cells are thought to be mainly related to ROS production, which are highly reactive and cytotoxic species that can induce cell death by apoptosis.[62] It has also been shown that ruthenium compounds can induce different cell death pathways.[63],[64] For these reasons, we initially analyzed by Western blot the expression of cleaved caspase 3 and PARP, which are two well-known markers for programmed cell death apoptosis.[65]−[70] […] The cells were then further cultivated in the dark for 24 h. […] Then, the protein expression of CHOP, a key component of the endoplasmic reticulum (ER) stress-mediated apoptosis pathway and known to be induced by ruthenium compounds, was evaluated.[71],[72] […] To investigate this, the expression and conversion of LC3B–I to LC3B–II was analyzed by Western blot (Figure 11).
(§2) Figure 11 Effects of photoactivation of 1, Ru-1, 3B, and Ru-3B on protein expression on different cell death markers in AGS gastric cancer cells. […] Protein extraction was performed, and expression of the different markers was determined by Western blot. […]
(§3) Cells were then lysed in lysis buffer (50 mM Tris–HCl pH 6.7, NaCl 150 mM, NP40 1%). Total protein concentration was determined using Bradford assay and adjusted to the same quantity (50 μg) for each experiment. […] Protein bands were quantified using ImageJ software.[99] […]

COX2 = test: Western blot of COX2 in AGS cells; assay type: cell-based, human; conditions: IC50 concentration 4 h; for COX2 expression in the dark: kept in the dark
Protocol: (§4) Figure 12 Effects of photoactivation of 1, Ru-1, 3B and Ru-3B on protein expression of ferroptosis and inflammation markers in AGS gastric cancer cells. […] (a) Expression of the different markers was determined by Western blot. GAPDH was used as a loading control. Representative Western blot of three independent experiments. ctl = control, untreated cells. Graphs represent the quantification of three independent experiments of GPX4 (b) and COX2 (c) expression, compared to not-treated AGS cells (ctl) and normalized to GAPDH expression. Bars above the colons indicate the comparison of dark versus light for each compound. The dark and light results of each compound were compared to those of the respective untreated control condition (ctl). Statistical analysis: 2-way Anova *<0.05, **<0.01, ***<0.001, ns = not-significant.
COX2 is known for its central role in inflammation and prostaglandins (PGs) production. In normal cells, COX2 expression is almost absent, whereas in cancer cells, it is frequently overexpressed.[84] Importantly, it has been shown that in cancers, COX2 is not only a mediator of inflammation but could also be a mediator of oxidative stress and inhibition of apoptosis, as well as cancer cell proliferation.[85]
Cells were then lysed in lysis buffer (50 mM Tris–HCl pH 6.7, NaCl 150 mM, NP40 1%). Total protein concentration was determined using Bradford assay and adjusted to the same quantity (50 μg) for each experiment. A total of 30 μg of proteins were resolved by 6–15% SDS-PAGE (depending on protein molecular weight) and transferred to nitrocellulose blotting membranes according to standard methods. Membranes were blocked with blocking buffer (containing 5% milk powder or 1% BSA) for 1 h at room temperature, then washed three times with TBST or PBST (containing 0.1% Tween-20) and incubated with primary antibodies at 4 °C overnight. The following day, the membranes were washed thrice with […]. […] Protein bands were quantified using ImageJ software.[99] […]

GPX4 = test: Western blot of GPX4 in AGS cells; assay type: cell-based, human; conditions: IC50 concentration 4 h, white light 15 min, 24 h in the dark
Protocol: Ferroptosis, another form of nonapoptotic cell death, can promote inflammation and is triggered by iron-catalyzed lipid peroxidation via Fenton-type reactions, where the main ROS responsible for lipid damage are hydroxyl radical and superoxide radical.[81],[82] Glutathione peroxidase (GPX4) can suppress lipid peroxidation and protect cells from ferroptosis.[83] To investigate the impact of the different compounds on GPX4 expression, AGS cells were treated as described above, and then GPX4 expression was analyzed by Western blot (Figure 12a).
as §4, with “Bars above the colons indicate the comparison of dark versus light for each compound. The dark and light results of each compound were compared to those of the respective untreated control condition (ctl). Statistical analysis: 2-way Anova *<0.05, **<0.01, ***<0.001, ns = not-significant.” left out
as §3

[3] = test system: cleaved caspase 3 and PARP; test: Western blot of apoptosis markers in AGS cells; assay type: cell-based, human; conditions: IC50 concentration 4 h, white light 15 min, 24 h in the dark
Excerpt: as §1, §2, §3

[4] = Homo sapiens, AGS, kept in dark, N = 3, read-out: IC50 dark
[5] = Homo sapiens, AGS, white light 15 min, N = 3, read-out: IC50 light

## C=Cc1c(C)c2cc3nc(cc4[nH]c(cc5nc(cc1[nH]2)C(C)=C5CCC(=O)OC)c(CCC(=O)OC)c4C)C1(C)C3=CCC(C(=O)OC)=C1C(=O)OC (stereo not drawn) [3A]
AGS gastric cancer cells; [4]
  IC50: > 100000 nM
AGS gastric cancer cells; [5]
  IC50: 100 ± 60 nM
[1]
  Φf luminescence quantum yield: 1.2%
[2]
  log PO/PBS: 1.478 ± 0.083

## C=Cc1c(C)c2cc3nc(cc4[nH]c(cc5nc(cc1[nH]2)C1(C)C5=CCC(C(=O)OC)=C1C(=O)OC)c(C)c4CCC(=O)OC)C(CCC(=O)OC)=C3C (stereo not drawn) [3B]
AGS gastric cancer cells; white light 15 min, N = 3, read-out: IC50 light
  IC50: 200 ± 21 nM
AGS gastric cancer cells; [4]
  IC50: > 100000 nM
AGS gastric cancer cells; [5]
  IC50: 180 nM
LC3B
  LC3B-I/II expression: marked induction of LC3B–I/II expression
COX2
  COX2 expression in the dark: reduction in COX2 expression in the dark
[1]
  Φf luminescence quantum yield: 1.2%
[2]
  log PO/PBS: 1.661 ± 0.088

## C=Cc1c(C)c2cc3nc(cc4[nH]c(cc5nc(cc1[nH]2)C(C)=C5CCC(=O)OCc1ccccc1)c(CCC(=O)OCc1ccccc1)c4C)C1(C)C3=CCC(C(=O)OC)=C1C(=O)OC (stereo not drawn) [4A]
AGS gastric cancer cells; [4]
  IC50: > 100000 nM
AGS gastric cancer cells; [5]
  IC50: 2500 ± 231 nM
AGS gastric cancer cells
  PI (phototoxicity index): >40
[1]
  Φf luminescence quantum yield: 1.0%
[2]
  log PO/PBS: 1.368 ± 0.042

## C=Cc1c(C)c2cc3nc(cc4[nH]c(cc5nc(cc1[nH]2)C1(C)C5=CCC(C(=O)OC)=C1C(=O)OC)c(C)c4CCC(=O)OCc1ccccc1)C(CCC(=O)OCc1ccccc1)=C3C (stereo not drawn) [4B]
AGS gastric cancer cells; [4]
  IC50: > 100000 nM
AGS gastric cancer cells; [5]
  IC50: 2800 ± 265 nM
AGS gastric cancer cells
  PI (phototoxicity index): >36
[1]
  Φf luminescence quantum yield: 1.0%
[2]
  log PO/PBS: 1.682 ± 0.176

## C=CC1=C(C)c2cc3[nH]c(cc4nc(cc5[nH]c(cc1n2)c(C)c5CCC(=O)O)C(CCC(=O)O)=C4C)c(C)c3C=C [PpIX, protoporphyrin IX]
AGS gastric cancer cells; [4]
  IC50: > 100000 nM
AGS gastric cancer cells; [5]
  IC50: 500 nM
AGS gastric cancer cells
  PI (phototoxicity index): >200
COX2
  COX2 expression in the dark: reduction in COX2 expression in the dark
GPX4
  GPX4 expression: decrease in GPX4 expression

## N.N.[Cl][Pt][Cl] [cisplatin, reference compound]
AGS gastric cancer cells; kept in dark, N = 3, read-out: IC50 dark
  IC50: 29000 nM

## C=CC1=C(C)c2cc3[nH]c(cc4nc(cc5[nH]c(cc1n2)c(C)c5CCC(=O)OC)C(CCC(=O)OC)=C4C)c(C)c3C=C [compound 1]
AGS gastric cancer cells; [4]
  IC50: > 100000 nM
AGS gastric cancer cells; [5]
  IC50: 1700 ± 184 nM
AGS gastric cancer cells
  PI (phototoxicity index): > 17
COX2; white light 15 min, 24 h in the dark, vs untreated
  COX2 expression upon light irradiation: significantly reduce COX2 expression
[1]
  Φf luminescence quantum yield: 0.80%
[3]
  cleavage of caspase 3 and PARP: as efficient as VP
[2]
  log PO/PBS: 0.957 ± 0.056

## C=CC1=C(C)c2cc3[nH]c(cc4nc(cc5[nH]c(cc1n2)c(C)c5CCC(=O)OCc1ccccc1)C(CCC(=O)OCc1ccccc1)=C4C)c(C)c3C=C [compound 2]
AGS gastric cancer cells; [4]
  IC50: > 100000 nM
AGS gastric cancer cells; [5]
  IC50: 2600 ± 100 nM
AGS gastric cancer cells
  PI (phototoxicity index): > 18
[1]
  Φf luminescence quantum yield: 0.80%
[2]
  log PO/PBS: 1.063 ± 0.142
